Here are results for 25 compounds from US9187472B2 (AbbVie Inc., priority 2012, dated 2015).

Where only a bound is given, the exact number is not on record here.

The test system of one assay is PC3 cells. Description: NAMPT Cell Proliferation Assay. In kind it is cell-based. Particulars: Homo sapiens, PC-3, 120 h, 5 days incubation, cell viability by Cell Titer Glo. The method in brief: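 IC50 values derive from sigmoidal dose-response fits of percent inhibition of PC3 viability, measured by luminescence after 5 days of compound treatment. Cells (500/well, RPMI containing 10% heat-inactivated FBS) are allowed to attach overnight, and compounds are tested at 10-fold dilutions between 10 μM and 1×10^−5 μM.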

Assay [1] deals with NAMPT (human, recombinant, C-terminally His-tagged) (Homo sapiens, UniProt P43490). Description: Time-Resolved Fluorescence Resonance Energy Transfer (TR-FRET) Binding Assay of NAMPT. Particulars: without substrates; 6.8 nM NAMPT, 200 nM probe, 3 hours equilibration. The method in brief:
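In a displacement format, the nicotinamide-site tracer at 200 nM competed with test compound for 6.8 nM enzyme detected via 1 nM terbium anti-His antibody; incubation lasted 3 hours at room temperature in 50 mM HEPES pH 7.5, 100 mM NaCl. Normalized 520/495 nm emission ratios gave IC50 values.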

The next assay has as its target NAMPT (Homo sapiens, UniProt P43490). Description: TR-FRET Binding Assay of NAMPT with PRPP. Particulars: with 200 μM PRPP and 2.5 mM ATP; 2 nM NAMPT, 2 nM probe, 16 hours equilibration. The method, boiled down: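 Substrate-containing variant: 200 μM PRPP plus 2.5 mM ATP are added to 2 nM NAMPT and 2 nM probe, with a 16-hour incubation ahead of TR-FRET reading.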
On the technique in general: Time-resolved FRET reads energy transfer from a long-lived donor to a nearby acceptor.

Sequence of NAMPT (human, recombinant, C-terminally His-tagged) (P43490 whole entry): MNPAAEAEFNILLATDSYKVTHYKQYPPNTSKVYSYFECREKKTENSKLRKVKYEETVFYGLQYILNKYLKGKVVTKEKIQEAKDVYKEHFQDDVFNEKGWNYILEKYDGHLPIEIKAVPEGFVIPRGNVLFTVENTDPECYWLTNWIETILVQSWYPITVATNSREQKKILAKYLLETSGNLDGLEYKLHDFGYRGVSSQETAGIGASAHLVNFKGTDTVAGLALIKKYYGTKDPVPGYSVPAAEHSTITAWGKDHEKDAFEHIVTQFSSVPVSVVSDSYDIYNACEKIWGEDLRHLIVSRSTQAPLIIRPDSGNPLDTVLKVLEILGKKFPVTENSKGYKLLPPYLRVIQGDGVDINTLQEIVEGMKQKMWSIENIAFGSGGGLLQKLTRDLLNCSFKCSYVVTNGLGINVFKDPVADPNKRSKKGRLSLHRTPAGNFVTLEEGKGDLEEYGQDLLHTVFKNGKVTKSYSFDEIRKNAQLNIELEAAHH
Sequence of NAMPT (P43490 whole entry): as above

For the compound `O=C(NCc1ccn2ccnc2c1)c1ccc(C2CN(C(=O)C3CCCCC3)C2)cc1` [Example 660, 4-[1-(cyclohexylcarbonyl)azetidin-3-yl]-N-(imidazo[1,2-a]pyridin-7-ylmethyl)benzamide], the values for the IC50 (in the assay with PC3 cells; in assay [1]; on NAMPT) were 70.9 nM, 282 nM and 0.693 nM, respectively.

`N#CC1(C(=O)N2CCC(c3ccc(C(=O)NCc4ccn5ccnc5c4)cc3)CC2)CC1` [Example 514, 4-{1-[(1-cyanocyclopropyl)carbonyl]piperidin-4-yl}-N-(imidazo[1,2-a]pyridin-7-ylmethyl)benzamide]: the figures for the IC50 (in the assay with PC3 cells; in assay [1]; on NAMPT) were 30.8 nM, 368 nM and 0.249 nM, respectively.

Regarding `O=C(NCc1ccn2ccnc2c1)c1ccc(C2CCN(C(=O)c3ccco3)C2)cc1` (stereo not drawn) [Example 590, 4-[1-(furan-2-ylcarbonyl)pyrrolidin-3-yl]-N-(imidazo[1,2-a]pyridin-7-ylmethyl)benzamide], the figures for the IC50 (in the assay on PC3 cells; in assay [1]; on NAMPT) were 189 nM, 666 nM and 0.734 nM, respectively.

For the compound `O=C(NCc1ccn2ccnc2c1)Nc1ccc(C2CCN(C(=O)c3cc(F)cc(F)c3)CC2)cc1` [Example 724, 1-{4-[1-(3,5-difluorobenzoyl)piperidin-4-yl]phenyl}-3-(imidazo[1,2-a]pyridin-7-ylmethyl)urea], the IC50 – broadly, the concentration that gives 50% inhibition – with PC3 cells amounted to 63.2 nM; in assay [1], 161 nM; at NAMPT it was 0.992 nM.

Turning to `CC(C)C(=O)N1CCC(O)(c2ccc(C(=O)NCc3ccn4ccnc4c3)s2)CC1` [Example 554, 5-[4-hydroxy-1-(2-methylpropanoyl)piperidin-4-yl]-N-(imidazo[1,2-a]pyridin-7-ylmethyl)thiophene-2-carboxamide], the half-maximal inhibitory concentration (IC50) in the assay on PC3 cells came out at 177 nM; in assay [1], 451 nM; at NAMPT, 0.837 nM.

On to `CC(C)CC(=O)N1CCC(c2ncc(C(=O)NCc3ccn4ccnc4c3)s2)C1` (stereo not drawn) [Example 806, N-(imidazo[1,2-a]pyridin-7-ylmethyl)-2-[1-(3-methylbutanoyl)pyrrolidin-3-yl]-1,3-thiazole-5-carboxamide], for which the half-inhibitory concentration (IC50) in the assay with PC3 cells is 1400 nM; in assay [1], 2740 nM; at NAMPT it was 0.543 nM.

As to `N#Cc1ccc(CN(C(=O)CC2CCCC2)c2ccc(C(=O)NCc3ccc4nccn4c3)cc2)cc1` [Example 215, 4-[(4-cyanobenzyl)(cyclopentylacetyl)amino]-N-(imidazo[1,2-a]pyridin-6-ylmethyl)benzamide], the 50% inhibitory concentration (IC50) in the assay on PC3 cells came to 686 nM; in assay [1], 2010 nM; on NAMPT, 3.04 nM.

For the compound `O=C(NCc1ccn2ccnc2c1)c1ccc(C2CCN(C(=O)c3ccco3)CC2)cc1` [Example 484, 4-[1-(furan-2-ylcarbonyl)piperidin-4-yl]-N-(imidazo[1,2-a]pyridin-7-ylmethyl)benzamide], the half-inhibitory concentration (IC50) in the assay with PC3 cells came to 9.59 nM; in assay [1] it was 79.5 nM; at NAMPT it was 0.19 nM.

Turning to `O=C(NCc1ccn2ccnc2c1)c1ccc(C2CCN(C(=O)c3cccc(C(F)(F)F)c3)C2)cc1` (stereo not drawn) [Example 620, N-(imidazo[1,2-a]pyridin-7-ylmethyl)-4-{1-[3-(trifluoromethyl)benzoyl]pyrrolidin-3-yl}benzamide], the values for the IC50 (in the assay with PC3 cells; in assay [1]; at NAMPT) were 131 nM, 710 nM and 1 nM, respectively.

Consider `CC(C)Cn1cc(-c2ccc(C(=O)NCc3ccc4nccn4c3)s2)cn1` [Example 75, N-(imidazo[1,2-a]pyridin-6-ylmethyl)-5-[1-(2-methylpropyl)-1H-pyrazol-4-yl]thiophene-2-carboxamide], for which the results for the IC50 (in the assay with PC3 cells; in assay [1]; at NAMPT) were 1.49 nM, 12.2 nM and 0.445 nM, respectively.

Turning to `O=C(NCc1ccn2ccnc2c1)c1ccc(C2CCN(C(=O)c3cc(F)cc(F)c3)C2)s1` (stereo not drawn) [Example 768, 5-[1-(3,5-difluorobenzoyl)pyrrolidin-3-yl]-N-(imidazo[1,2-a]pyridin-7-ylmethyl)thiophene-2-carboxamide], the 50% inhibitory concentration (IC50) was 0.905 nM in the assay on PC3 cells, 28.1 nM in assay [1] and 0.672 nM on NAMPT.

As to `Cc1ccc(C(=O)N2CC(c3ccc(C(=O)NCc4ccn5ccnc5c4)cc3)C2)cc1` [Example 650, N-(imidazo[1,2-a]pyridin-7-ylmethyl)-4-[1-(4-methylbenzoyl)azetidin-3-yl]benzamide], the half-maximal inhibitory concentration (IC50) in the assay with PC3 cells is 58.3 nM; in assay [1] it was 153 nM; on NAMPT, 1.11 nM.

As for `COc1ccc(C(=O)N2CCC(c3ccc(C(=O)NCc4ccn5ccnc5c4)cc3)C2)cc1` (stereo not drawn) [Example 605, N-(imidazo[1,2-a]pyridin-7-ylmethyl)-4-[1-(4-methoxybenzoyl)pyrrolidin-3-yl]benzamide], the concentration for half-maximal inhibition (IC50) in the assay with PC3 cells is 66.1 nM; in assay [1], 559 nM; on NAMPT it was 0.886 nM.

On to `O=C(NCc1ccc2nccn2c1)c1ccc(C2=CCN(C(=O)C3CCOCC3)CC2)cc1` [Example 101, N-(imidazo[1,2-a]pyridin-6-ylmethyl)-4-[1-(tetrahydro-2H-pyran-4-ylcarbonyl)-1,2,3,6-tetrahydropyridin-4-yl]benzamide], for which the results for the IC50 (in the assay with PC3 cells; in assay [1]; on NAMPT) were 2.44 nM, 332 nM and 1.73 nM, respectively.

Turning to `CC(C)CC(=O)N1CCC(c2ccc(C(=O)NCc3ccn4ccnc4c3)cc2)CC1` [Example 534, N-(imidazo[1,2-a]pyridin-7-ylmethyl)-4-[1-(3-methylbutanoyl)piperidin-4-yl]benzamide], the IC50 with PC3 cells was 5.08 nM; in assay [1], 145 nM; on NAMPT, 0.251 nM.

Consider `COCCOCC(=O)N1CC=C(c2ccc(C(=O)NCc3ccc4nccn4c3)cc2)CC1` [Example 103, N-(imidazo[1,2-a]pyridin-6-ylmethyl)-4-{1-[(2-methoxyethoxy)acetyl]-1,2,3,6-tetrahydropyridin-4-yl}benzamide], for which the values for the IC50 (in the assay on PC3 cells; in assay [1]; on NAMPT) were 62.1 nM, 840 nM and 1.44 nM, respectively.

As to `N#CC1(C(=O)N2CCC(c3ccc(C(=O)NCc4ccn5ccnc5c4)s3)C2)CC1` (stereo not drawn) [Example 781, 5-{1-[(1-cyanocyclopropyl)carbonyl]pyrrolidin-3-yl}-N-(imidazo[1,2-a]pyridin-7-ylmethyl)thiophene-2-carboxamide], the IC50 in the assay on PC3 cells worked out at 7.27 nM; in assay [1], 87.5 nM; at NAMPT, 0.839 nM.

As to `O=C(NCc1ccn2ccnc2c1)c1ccc(C2CCN(C(=O)CCC(F)(F)F)CC2)s1` [Example 574, N-(imidazo[1,2-a]pyridin-7-ylmethyl)-5-[1-(4,4,4-trifluorobutanoyl)piperidin-4-yl]thiophene-2-carboxamide], the half-maximal inhibitory concentration (IC50) in the assay on PC3 cells worked out at 5.2 nM; in assay [1], 97.5 nM; at NAMPT, 0.505 nM.

As to `CC(C)Cn1cc(-c2ncc(C(=O)NCc3ccn4ccnc4c3)s2)cn1` [Example 205, N-(imidazo[1,2-a]pyridin-7-ylmethyl)-2-[1-(2-methylpropyl)-1H-pyrazol-4-yl]-1,3-thiazole-5-carboxamide], the 50% inhibitory concentration (IC50) in the assay on PC3 cells is 483 nM; in assay [1] it was 1060 nM; at NAMPT it was 0.358 nM.

For the compound `O=C(NCc1ccn2ccnc2c1)Nc1ccc(C2CCN(C(=O)[C@H]3CCCO3)C2)cc1` (stereo partly drawn) [Example 386, 1-(imidazo[1,2-a]pyridin-7-ylmethyl)-3-(4-{1-[(2R)-tetrahydrofuran-2-ylcarbonyl]pyrrolidin-3-yl}phenyl)urea], the IC50 amounted to 42.4 nM in the assay on PC3 cells, 283 nM in assay [1] and 0.254 nM at NAMPT.

On to `O=C(NCc1ccn2ccnc2c1)Nc1ccc(C2CCN(C(=O)CC3CCOCC3)CC2)cc1` [Example 223, 1-(imidazo[1,2-a]pyridin-7-ylmethyl)-3-{4-[1-(tetrahydro-2H-pyran-4-ylacetyl)piperidin-4-yl]phenyl}urea], for which the IC50 with PC3 cells is 7.08 nM; in assay [1], 109 nM; at NAMPT it was 0.354 nM.

In the case of `O=C(NCc1ccn2ccnc2c1)c1ccc(Oc2ccccc2)cc1` [Example 489, N-(imidazo[1,2-a]pyridin-7-ylmethyl)-4-phenoxybenzamide], the half-inhibitory concentration (IC50) was more than 10000 nM in the assay with PC3 cells, 1220 nM in assay [1] and 0.263 nM at NAMPT.

As for `O=C(NCc1ccn2ccnc2c1)c1ccc(OC2CCN(C(=O)CN3CCOCC3)CC2)cc1` [Example 423, N-(imidazo[1,2-a]pyridin-7-ylmethyl)-4-{[1-(morpholin-4-ylacetyl)piperidin-4-yl]oxy}benzamide], the values for the IC50 (with PC3 cells; in assay [1]; at NAMPT) were 187 nM, 8260 nM and 0.338 nM, respectively.

Consider `CC(C)Cn1cc(-c2ccc(C(=O)NCc3ccn4ccnc4c3)s2)cn1` [Example 174, N-(imidazo[1,2-a]pyridin-7-ylmethyl)-5-[1-(2-methylpropyl)-1H-pyrazol-4-yl]thiophene-2-carboxamide], for which the IC50 is 1.12 nM in the assay on PC3 cells, 28.3 nM in assay [1] and 0.169 nM on NAMPT.

As for `COCCC(=O)N(CC1CCOCC1)c1ncc(C(=O)NCc2ccc3nccn3c2)s1` [Example 142, N-(imidazo[1,2-a]pyridin-6-ylmethyl)-2-[(3-methoxypropanoyl)(tetrahydro-2H-pyran-4-ylmethyl)amino]-1,3-thiazole-5-carboxamide], the IC50 with PC3 cells amounted to 18.2 nM; in assay [1], 1430 nM; at NAMPT, 3.05 nM.
